The source of these data is patent US9944618B2, “Inhibiting neurotransmitter reuptake” (Mayo Foundation for Medical Education and Research, priority 2013, dated 2018).

The target of the assay is human norepinephrine transporter (Homo sapiens (Human), UniProt P23975). In words: Human NET (norepinephrine transporter) uptake assay. It counts as cell-based. The conditions noted are these: comparison in words, used to assign configuration. The procedure: This protocol was designed to measure inhibition of uptake by the human norepinephrine transporter. […] The Assay Buffer (AB) was 1×HBSS and 0.02 M HEPES.
The HEK293F cells were transfected with the human norepinephrine transporter and frozen in 1 mL aliquots at about 1E+07 cells/mL. On the day of the experiment, the cells were removed from −80° C. or liquid nitrogen and thawed in a room temperature water bath. The cells were dilute to about 1-2E+06 with Freestyle medium. A 1 mL sample (1:2 dilution) was prepared, and the cells were counted. The cells were spun at 1100 rpm for 5 minutes, and the medium was aspirated off. The cells were resuspend in medium at 1.5E+06 cells/mL for about 60,000 cells per well. 40 μL of cells were dispensed per well in the Biocoat plates. The plates were spun at 1100 rpm for 1 minute to improve homogeneity of the cell layer and were incubated at 37° C. for a minimum of 3 hours.
12 μL of test compound (10 mM) in DMSO was added to the wells, and nomifensine was used as a control. […] The neurotransmitter transporter dye was prepared in AB prior to use.
Due to the proprietary nature of the dye formulation, all dye concentrations were expressed as a percentage of the vendor-recommended dye reconstitution. Thus, the above calculations were valid when both [dye] and Km were expressed in the same units (%). Compounds were tested in triplicate (n=3).

human norepinephrine transporter, sequence (P23975 whole entry): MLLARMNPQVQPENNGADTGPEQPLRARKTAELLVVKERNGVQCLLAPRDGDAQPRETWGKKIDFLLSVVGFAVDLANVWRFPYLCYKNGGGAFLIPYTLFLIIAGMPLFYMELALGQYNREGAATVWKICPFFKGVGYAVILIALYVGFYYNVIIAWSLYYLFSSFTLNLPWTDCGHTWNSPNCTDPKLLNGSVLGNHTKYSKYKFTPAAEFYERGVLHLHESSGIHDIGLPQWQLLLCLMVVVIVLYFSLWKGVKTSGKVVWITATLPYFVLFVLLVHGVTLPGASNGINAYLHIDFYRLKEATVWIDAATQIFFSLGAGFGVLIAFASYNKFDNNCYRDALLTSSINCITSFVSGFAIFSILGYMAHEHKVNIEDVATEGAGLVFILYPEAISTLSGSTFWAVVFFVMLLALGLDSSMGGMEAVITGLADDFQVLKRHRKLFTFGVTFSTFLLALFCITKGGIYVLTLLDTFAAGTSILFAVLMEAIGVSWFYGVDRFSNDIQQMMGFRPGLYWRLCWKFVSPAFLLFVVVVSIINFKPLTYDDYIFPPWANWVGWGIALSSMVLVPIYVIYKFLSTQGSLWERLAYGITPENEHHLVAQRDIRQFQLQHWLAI

As to `CNC[C@H](c1ccc2ccccc2c1)[C@@H](O)c1ccccc1F` [compound 60], the “potency at hNET relative to the other enantiomer or epimer” value is listed as “more potent”.

As to `NC[C@@H](c1ccc2ccccc2c1)C(O)c1ccncc1Cl` (stereo partly shown) [compound 118], the “potency at hNET relative to the other enantiomer or epimer” value is given as “lower potency”.

With `CNC[C@@H](c1ccc(Cl)c(Cl)c1)[C@@H](O)c1cccc([S+](C)[O-])c1` (single isomer, unassigned) [compound 116], the “potency at hNET relative to the other enantiomer or epimer” value is reported as “equipotent”.

On to `CNC[C@H](c1ccc(Cl)c(Cl)c1)[C@H](O)c1cccc([N+](=O)[O-])c1` [compound 102], for which the “potency at hNET relative to the other enantiomer or epimer” value is given as “more potent”.

As to `CNC[C@H](c1ccc(Cl)c(Cl)c1)[C@H](O)c1cccc(Br)c1` [compound 76], the “potency at hNET relative to the other enantiomer or epimer” value is given as “more potent”.

With `CNC[C@H](c1ccc2ccccc2c1)[C@H](O)c1ccccc1F` [compound 15], the “potency at hNET relative to the other enantiomer or epimer” value was “more potent”.

As to `NC[C@@H](Cc1ccccc1O)c1ccc2ccccc2c1` [compound 133], the “potency at hNET relative to the other enantiomer or epimer” value is on record as “more potent”.

Consider `CNC[C@H](c1ccc(Cl)c(Cl)c1)[C@H](O)c1cccc(I)c1` [compound 151], for which the “potency at hNET relative to the other enantiomer or epimer” value was “higher potency”.

Turning to `CNC[C@H](c1ccc2ccccc2c1)[C@H](O)c1cncc(OC)c1` [compound 92], the “potency at hNET relative to the other enantiomer or epimer” value is recorded as “more potent”.

In the case of `CNC[C@@H](c1ccc(Cl)c(Cl)c1)[C@@H](O)c1cccc(SC)c1` [compound 154], the “potency at hNET relative to the other enantiomer or epimer” value is listed as “lower potency”.

On to `CNC[C@H](c1ccc(Cl)c(Cl)c1)[C@@H](O)c1cccc(NS(=O)(=O)C(F)(F)F)c1` [compound 127], for which the “potency at hNET relative to the other enantiomer or epimer” value is “higher inhibitory activity”.

Turning to `CNCC(Cc1cccnc1)c1ccc2ccccc2c1` (stereo not shown) [compound 48], the “potency at hNET relative to the other enantiomer or epimer” value is listed as “more potent”.

As to `C[C@](CN)(Cc1cccnc1)c1ccc2ccccc2c1` [compound 42], the “potency at hNET relative to the other enantiomer or epimer” value was “more potent”.

Regarding `CNC[C@@H](c1ccc(Cl)c(Cl)c1)[C@@H](O)c1ccccc1` [compound 114], the “potency at hNET relative to the other enantiomer or epimer” value is recorded as “weak hNET potency”.

As to `CNC[C@H](c1ccc(Cl)c(Cl)c1)[C@@H](O)c1ccccc1-c1cccs1` [compound 100], the “potency at hNET relative to the other enantiomer or epimer” value is “higher inhibitory activity”.

Regarding `CNC[C@H](c1ccc(Cl)c(Cl)c1)[C@H](O)c1cccc(OC)n1` [compound 167], the “potency at hNET relative to the other enantiomer or epimer” value is “higher potency”.

In the case of `CNC[C@H](c1ccc(Cl)c(Cl)c1)[C@@H](O)c1ccccc1I` [compound 152], the “potency at hNET relative to the other enantiomer or epimer” value is “higher potency”.

`CNC[C@H](c1ccc2ccccc2c1)[C@@H](O)c1cc(F)cc(F)c1` [compound 141]: the “potency at hNET relative to the other enantiomer or epimer” value is on record as “more potent”.

`CNC[C@@H](c1ccc(Cl)c(Cl)c1)[C@@H](O)c1cccc(Br)c1` [compound 162]: the “potency at hNET relative to the other enantiomer or epimer” value was “less potent”.

With `CNC[C@@H](c1ccc2ccccc2c1)[C@@H](O)c1cccnc1` [compound 49], the “potency at hNET relative to the other enantiomer or epimer” value is listed as “more potent”.

For `CNCC(Cc1ccccc1OC)c1ccc2ccccc2c1` (stereo not shown) [compound 57], the “potency at hNET relative to the other enantiomer or epimer” value is “more potent”.

`CNC[C@@H](c1ccc(Cl)c(Cl)c1)[C@@H](O)c1cccc(NS(=O)(=O)C(F)(F)F)c1` [compound 121]: the “potency at hNET relative to the other enantiomer or epimer” value is on record as “lower potency”.

Take `CNCC(Cc1ccccc1O)c1ccc2ccccc2c1` (stereo not shown) [compound 52]: the “potency at hNET relative to the other enantiomer or epimer” value is recorded as “more potent”.

Turning to `CNCC(Cc1ccccc1C)c1ccc2ccccc2c1` (stereo not shown) [compound 39], the “potency at hNET relative to the other enantiomer or epimer” value was “more potent”.

Take `CNC[C@@H](c1ccc(Cl)c(Cl)c1)[C@@H](O)c1cccnc1OC` [compound 171]: the “potency at hNET relative to the other enantiomer or epimer” value was “less potent”.
